In patent US5459260A, “Tricyclic or tetracyclic carbapenem compounds, their production and use” (Takeda Chemical Industries, Ltd., priority 1991, dated 1995):
Converted amounts (≈) assume the structure as drawn.

Legend:
Assay in all cases: MIC by the agar dilution method
Type in all cases: cell-based
K. pneumoniae DT = details: Klebsiella pneumoniae, 10^8 CFU/ml, Trypticase soy agar, 37° C. overnight
Experimental: (§1) The MICs of the test compound were determined by the agar dilution method. Thus, 1.0 ml portions of serially diluted aqueous solutions of the test compound were poured in petri dishes and admixed with 9.0 ml portions of Trypticase soy agar. Then, a suspension (about 10^8 CFU/ml) of each test strain was smeared on each agar plate and incubated at 37° C. overnight. The lowest concentration of the test compound inhibiting growth of the test strain 100% was regarded as the minimal inhibitory concentration, MIC.

C. diphtheriae Tronto = details: Corynebacterium diphtheriae, 10^8 CFU/ml, Trypticase soy agar, 37° C. overnight
Experimental: as §1

E. coli NIHJ O-111 = details: Escherichia coli, NIHJO111, 10^8 CFU/ml, Trypticase soy agar, 37° C. overnight
Experimental: as §1

S. marcescens IFO 12648 = details: Serratia marcescens, IFO12648, 10^8 CFU/ml, Trypticase soy agar, 37° C. overnight
Experimental: as §1

E. cloacae TN 583 = details: Enterobacter cloacae, TN583, 10^8 CFU/ml, Trypticase soy agar, 37° C. overnight
Experimental: as §1

P. vulgaris IFO 3988 = details: Proteus vulgaris, IFO3988, 10^8 CFU/ml, Trypticase soy agar, 37° C. overnight
Experimental: as §1

S. aureus 1840 = details: Staphylococcus aureus, 10^8 CFU/ml, Trypticase soy agar, 37° C. overnight
Experimental: as §1

M. morganii IFO 3168 = details: Morganella morganii, IFO3168, 10^8 CFU/ml, Trypticase soy agar, 37° C. overnight
Experimental: as §1

K. oxytoca TN 1711 = details: Klebsiella oxytoca, TN1711, 10^8 CFU/ml, Trypticase soy agar, 37° C. overnight
Experimental: as §1

S. pyogenes S-8 = details: Streptococcus pyogenes, S8, 10^8 CFU/ml, Trypticase soy agar, 37° C. overnight
Experimental: as §1

E. coli NIHJ T-7 = details: Escherichia coli, NIHJT7, 10^8 CFU/ml, Trypticase soy agar, 37° C. overnight
Experimental: as §1

S. mitis America = details: Streptococcus mitis, 10^8 CFU/ml, Trypticase soy agar, 37° C. overnight
Experimental: as §1

S. pneumoniae Type I = details: Streptococcus pneumoniae, 10^8 CFU/ml, Trypticase soy agar, 37° C. overnight
Experimental: as §1

E. cloacae IFO 12937 = details: Enterobacter cloacae, IFO12937, 10^8 CFU/ml, Trypticase soy agar, 37° C. overnight
Experimental: as §1

C. freundii IFO 12681 = details: Citrobacter freundii, IFO12681, 10^8 CFU/ml, Trypticase soy agar, 37° C. overnight
Experimental: as §1

S. aureus 308A-1 = details: Staphylococcus aureus, 308A1, 10^8 CFU/ml, Trypticase soy agar, 37° C. overnight
Experimental: as §1

E. coli NIHJ JC-2 = details: Escherichia coli, NIHJJC2, 10^8 CFU/ml, Trypticase soy agar, 37° C. overnight
Experimental: as §1

P. mirabilis IFO 3849 = details: Proteus mirabilis, IFO3849, 10^8 CFU/ml, Trypticase soy agar, 37° C. overnight
Experimental: as §1

S. aureus FDA 209P = details: Staphylococcus aureus, FDA209P, 10^8 CFU/ml, Trypticase soy agar, 37° C. overnight
Experimental: as §1

S. pyogenes E-14 = details: Streptococcus pyogenes, E14, 10^8 CFU/ml, Trypticase soy agar, 37° C. overnight
Experimental: as §1

C. freundii TN 474 = details: Citrobacter freundii, TN474, 10^8 CFU/ml, Trypticase soy agar, 37° C. overnight
Experimental: as §1

For `C[C@@H](O)[C@H]1C(=O)N2C(C(=O)O)=C3[C@@H](CCO)CCO[C@@H]3[C@H]12` [Example 19], the MIC (K. pneumoniae DT) was 0.2 µg/mL (≈ 0.673 µM), the MIC (C. diphtheriae Tronto) was 0.2 µg/mL (≈ 0.673 µM) and the MIC (E. coli NIHJ O-111) was < 0.1 µg/mL. The MIC (S. marcescens IFO 12648) was 0.78 µg/mL (≈ 2.62 µM), the MIC (E. cloacae TN 583) was 12.5 µg/mL (≈ 42 µM) and the MIC (P. vulgaris IFO 3988) was 0.78 µg/mL (≈ 2.62 µM). For the same molecule, the MIC (S. aureus 1840) was 0.2 µg/mL (≈ 0.673 µM), the MIC (M. morganii IFO 3168) was 0.78 µg/mL (≈ 2.62 µM) and the MIC (K. oxytoca TN 1711) was 1.56 µg/mL (≈ 5.25 µM). The MIC (S. pyogenes S-8) was < 0.1 µg/mL, the MIC (E. coli NIHJ T-7) was 1.56 µg/mL (≈ 5.25 µM) and the MIC (S. mitis America) was < 0.1 µg/mL. The MIC (S. pneumoniae Type I) was < 0.1 µg/mL, the MIC (E. cloacae IFO 12937) was 6.25 µg/mL (≈ 21 µM) and the MIC (C. freundii IFO 12681) was 0.2 µg/mL (≈ 0.673 µM). For the same molecule, the MIC (S. aureus 308A-1) was < 0.1 µg/mL, the MIC (E. coli NIHJ JC-2) was < 0.1 µg/mL and the MIC (P. mirabilis IFO 3849) was 0.39 µg/mL (≈ 1.31 µM). For the same molecule, the MIC (S. aureus FDA 209P) was < 0.1 µg/mL, the MIC (S. pyogenes E-14) was < 0.1 µg/mL and the MIC (C. freundii TN 474) was 6.25 µg/mL (≈ 21 µM).
